Source: patent US7528175B2, “Method of treating airway diseases with beta-adrenergic inverse agonists” (Inverseon, Inc., priority 2005, dated 2009)

Tests used:
asthmatic mice = experiment: BALF cell number and type (Example 11); type: in vivo; conditions: vs nontreated asthmatic mice
From the text: The same mice as described in Example 1 underwent bronchoalveolar lavage (BAL) to determine the total number and type of immune system cells in the lung. BAL Fluid (BALF) was irrigated and collected from the lungs of mice as previously described (Evans K L, Bond R A, Corry […]. Frequency dependence of respiratory system mechanics during induced constriction in a murine model of asthma. J Appl Physiol. 2003 January;94(1):245-52). […] The number of neutrophils was increased in nontreated asthmatic mice compared to mice that served as controls for chronic beta-blocker treatments. In comparison to their notable effects on airway responsiveness, the β-AR ligands tested had very little effect on BALF cellularity. […] FIG. 12 has 3 panels of cell number and type of cells from the bronchoalveolar lavage fluid of asthmatic mice treated acutely or chronically with beta adrenergic ligands. Cells were identified as eosinophils (black bars), macrophages (hatched bars), neutrophils (grey bars), and lymphocytes (white bars) by standard morphologic criteria. At least 200 cells were counted per cytospin preparation, and the absolute number of each cell type was calculated based on the volume of fluid recovered from the lavage. […] Data are expressed as mean ±SEM and are representative of 6-25 animals per group. #P<0.05 compared to NTX, *P<0.05 compared to control (ANOVA).

From the text for adults with mild asthma: Study Design: The study is an open-label Phase IIa, proof of principle, 11-week, dose escalation study in mild asthma. Up to twelve subjects with mild asthma, not taking inhaled corticosteroids or other controller medications are to be recruited from a single clinical research center. […] Combivent rescue medication was provided to subjects during the run-in period to replace their own rescue medication which typically is Albuterol (salbutamol a beta 2 partial agonist).
The subjects are maintained at their maximum tolerated dose for a minimum of 4 weeks.
All the following criteria had to be met for dose escalation otherwise the dose was kept at maintenance level (same dose), reduced to previous lower tolerated dose or the subject was terminated from the study.
Data collected at baseline and during study visits include lung function (spirometry—FEV1 and daily peak flow rates —PEFR), asthma symptoms via dairy cards), heart rate and blood pressure. In addition, airway hyper-responsiveness (methacholine challenge test—PC20) and Asthma Control Questionaire (Juniper ACQ) will be performed. Blood is collected to monitor beta adrenergic receptor levels in lymphocytes and baseline laboratory evaluation.

With `CC(C)(C)NCC(O)COc1cccc2c1CC(O)C(O)C2` (stereo not drawn) [nadolol] the BALF cellularity (asthmatic mice; acute treatment (15 minutes)) was “significant elevations in the number of neutrophils”, the BALF cellularity (asthmatic mice; chronic treatment (28 days)) was “significant elevations in the number of neutrophils” and the “ACQ Score Δ” value (adults with mild asthma; Asthma Control Questionnaire, absolute change from baseline, per subject) was “results were mixed”. For the same compound, the “PEFR % Change baseline” value (adults with mild asthma; average last 14 days of treatment vs last 14 days of run-in, per subject) was “essentially no effect”, the “subjects with reduction in airway twitchiness (increased PC20)” value (adults with mild asthma; chronic nadolol) was 4 of 5 and the “subjects with PC20 doubling doses within the 1.5 limit” value (adults with mild asthma; chronic nadolol, 5 subjects) was “Two subjects”. The “subjects with increases of doubling doses greater than 1.5” value (adults with mild asthma; chronic nadolol, 5 subjects) was 3 subjects, the “PC20 Doubling Dose” value (adults with mild asthma; methacholine PC20 change from baseline at the end of the trial, per subject) was “more pronounced effect on airway hyper-responsiveness” and the “Puffs/Day Mean Change per Day” value (adults with mild asthma; rescue medication use, absolute change from baseline, per subject) was “results were mixed”.
